The values below come from patent US12275718B2, “Small molecule inhibitors of galectin-3” (BRISTOL-MYERS SQUIBB COMPANY, priority 2018, dated 2025).

Sequence of His-tagged recombinant human Gal-3 (hGal-3) (P17931 whole entry): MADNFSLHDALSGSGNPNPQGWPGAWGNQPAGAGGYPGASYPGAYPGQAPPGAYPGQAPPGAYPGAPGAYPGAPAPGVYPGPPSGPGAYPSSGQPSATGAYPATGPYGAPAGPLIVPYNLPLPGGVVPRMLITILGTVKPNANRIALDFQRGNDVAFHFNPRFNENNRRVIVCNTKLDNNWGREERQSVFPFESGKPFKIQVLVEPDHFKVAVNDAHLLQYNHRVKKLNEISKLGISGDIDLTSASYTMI

The assay addresses His-tagged recombinant human Gal-3 (hGal-3) (Homo sapiens, UniProt P17931). As to the kind of experiment: Gal-3 HTRF assay (His-tagged hGal-3 / B-ASF). In kind it is binding. The settings on record: hGal-3 15 nM, B-ASF 15 nM, room temperature, three replicates. As for the experimental part:
• ASSAY BUFFER Composition: 25 mM HEPES, 100 mM NaCl, 0.005% Tween 20, 0.05% BSA prepared in sterile water (all reagents from Sigma) Controls: • Positive Control: 100% DMSO (1 μl)+His-tagged hGal-3 (20 μL)+B-ASF (20 μl)+Anti-His Terbium Antibody (5 μl)+Strep d2 Antibody (5 μl). • Negative Control: […] (1 μl)+His-tagged hGal-3 (20 μL)+Anti His Terbium Antibody (5 μl)+Strep d2 Aantibody (5 μl). Stocks Preparation:
PROTOCOL: The Gal-3 assays were performed in 384 white Opti plates in three replicates at room temperature with gentle shaking at 250-300 rpm From the original stocks, […] working stock concentrations of His-tagged recombinant human Gal-3 (hGal-3) and that of B-ASF were prepared. From the working stock, 20 μl of hGal-3 (15 nM) and 20 μl B-ASF (15 nM) were added to the plates. In Negative Control, only hGal-3 was added. A concentration range of 50× working stocks were prepared for the compounds in […]. Aliquots of 1 uL of the compounds were added to the wells and pre-incubated with 20 μl hGal-3 per well for 30 minutes Then 20 μl B-ASF were added and incubated for another 1 hour. To detect the signal, 5 μL (final conc. of 1.0 nM) terbium labelled Anti-His antibody was added and incubated for 30 min followed by adding 5 μL (final conc. of 20 nM) Streptavidin d2 and incubation for another 1 hour. The assay signal was detected using HTRF screen protocol (Excitation wavelength=340 nm, emission wavelength=615 nm/665 nm) on Envision 2104 Multilabel Reader. Data analysed using Toolset and Curve Master. Results are reported in the experimental section (IC50 in μM).
On to `Cc1nc(C2OC(CO)C(O)C(n3cc(-c4cc(F)c(F)c(F)c4)nn3)C2OCC(=O)NCCCCCNC(=O)COC2C(c3nc(C)nn3-c3cc(Cl)ccc3Cl)OC(CO)C(O)C2n2cc(-c3cc(F)c(F)c(F)c3)nn2)n(-c2cc(Cl)ccc2Cl)n1` (stereo not drawn) [Example 2], for which the IC50 worked out at 1 nM.

For the molecule `Cc1nc([C@H]2O[C@@H](CO)[C@@H](O)[C@@H](n3cc(-c4ccc(Cl)c(F)c4)nn3)[C@@H]2OCC(=O)NCCCCCNC(=O)CO[C@@H]2[C@@H](n3cc(-c4ccc(Cl)c(F)c4)nn3)[C@@H](O)[C@@H](CO)O[C@H]2c2nc(C)nn2-c2cc(Cl)ccc2Cl)n(-c2cc(Cl)ccc2Cl)n1` [Example 5], the half-inhibitory concentration (IC50) came out at 10 nM.

For `Cc1nc([C@H]2O[C@@H](CO)[C@@H](O)[C@@H](n3cc(-c4cc(F)c(Cl)c(F)c4)nn3)[C@@H]2OCC(=O)NCCCNC(=O)CO[C@@H]2[C@@H](n3cc(-c4cc(F)c(Cl)c(F)c4)nn3)[C@@H](O)[C@@H](CO)O[C@H]2c2nc(C)nn2-c2cc(Cl)ccc2C(F)(F)F)n(-c2cc(Cl)ccc2C(F)(F)F)n1` [Example 6], the IC50 came to 1 nM.

With `Cc1nc([C@H]2O[C@@H](CO)[C@@H](O)[C@@H](n3cc(-c4cc(F)c(Cl)c(F)c4)nn3)[C@@H]2OCC(=O)NCCCCNC(=O)CO[C@@H]2[C@@H](n3cc(-c4cc(F)c(Cl)c(F)c4)nn3)[C@@H](O)[C@@H](CO)O[C@H]2c2nc(C)nn2-c2cc(Cl)ccc2C(F)(F)F)n(-c2cc(Cl)ccc2C(F)(F)F)n1` [Example 7], the IC50 stood at 1 nM.

As to `Cc1nc([C@H]2O[C@@H](CO)[C@@H](O)[C@@H](n3cc(-c4cc(F)c(Cl)c(F)c4)nn3)[C@@H]2OCC(=O)NCCCCCNC(=O)CO[C@@H]2[C@@H](n3cc(-c4cc(F)c(Cl)c(F)c4)nn3)[C@@H](O)[C@@H](CO)O[C@H]2c2nc(C)nn2-c2cc(Cl)ccc2C(F)(F)F)n(-c2cc(Cl)ccc2C(F)(F)F)n1` [Example 8], the IC50 is 1 nM.

Turning to `Cc1nc([C@H]2O[C@@H](CO)[C@@H](O)[C@@H](n3cc(-c4cc(F)c(Cl)c(F)c4)nn3)[C@@H]2OCC(=O)NCCCCCCNC(=O)CO[C@@H]2[C@@H](n3cc(-c4cc(F)c(Cl)c(F)c4)nn3)[C@@H](O)[C@@H](CO)O[C@H]2c2nc(C)nn2-c2cc(Cl)ccc2Cl)n(-c2cc(Cl)ccc2Cl)n1` [Example 9], the half-maximal inhibitory concentration (IC50) was 6 nM.

Regarding `Cc1nc([C@H]2O[C@@H](CO)[C@@H](O)[C@@H](n3cc(-c4cc(F)c(Cl)c(F)c4)nn3)[C@@H]2OCC(=O)NCCCCCCCNC(=O)CO[C@@H]2[C@@H](n3cc(-c4cc(F)c(Cl)c(F)c4)nn3)[C@@H](O)[C@@H](CO)O[C@H]2c2nc(C)nn2-c2cc(Cl)ccc2Cl)n(-c2cc(Cl)ccc2Cl)n1` [Example 10], the IC50 is 10 nM.

For the molecule `Cc1nc([C@H]2O[C@@H](CO)[C@@H](O)[C@@H](n3cc(-c4cc(F)c(Cl)c(F)c4)nn3)[C@@H]2OCC(=O)NCCCCCNC(=O)CO[C@@H]2[C@@H](n3cc(-c4cc(F)c(Cl)c(F)c4)nn3)[C@@H](O)[C@@H](CO)O[C@H]2c2nc(C)nn2-c2cc(Cl)ccc2Cl)n(-c2cc(Cl)ccc2Cl)n1` [Example 11], the IC50 came out at 1 nM.

On to `Cc1nc([C@H]2O[C@@H](CO)[C@@H](O)[C@@H](n3cc(-c4cc(F)c(Cl)c(F)c4)nn3)[C@@H]2OCC(=O)NCCCCNC(=O)CO[C@@H]2[C@@H](n3cc(-c4cc(F)c(Cl)c(F)c4)nn3)[C@@H](O)[C@@H](CO)O[C@H]2c2nc(C)nn2-c2cc(Cl)ccc2Cl)n(-c2cc(Cl)ccc2Cl)n1` [Example 12], for which the IC50 amounted to 1 nM.

With `Cc1nc([C@H]2O[C@@H](CO)[C@@H](O)[C@@H](n3cc(-c4cc(F)c(Cl)c(F)c4)nn3)[C@@H]2OCC(=O)NCCNC(=O)CO[C@@H]2[C@@H](n3cc(-c4cc(F)c(Cl)c(F)c4)nn3)[C@@H](O)[C@@H](CO)O[C@H]2c2nc(C)nn2-c2cc(Cl)ccc2Cl)n(-c2cc(Cl)ccc2Cl)n1` [Example 13], the IC50 turned out to be 1 nM.

For `Cc1nc([C@H]2O[C@@H](CO)[C@@H](O)[C@@H](n3cc(-c4cc(F)c(Cl)c(F)c4)nn3)[C@@H]2OCC(=O)N(C)CCCCN(C)C(=O)CO[C@@H]2[C@@H](n3cc(-c4cc(F)c(Cl)c(F)c4)nn3)[C@@H](O)[C@@H](CO)O[C@H]2c2nc(C)nn2-c2cc(Cl)ccc2Cl)n(-c2cc(Cl)ccc2Cl)n1` [Example 15], the IC50 is 5 nM.

With `Cc1nc([C@H]2O[C@@H](CO)[C@@H](O)[C@@H](n3cc(-c4ccc(Cl)c(F)c4)nn3)[C@@H]2OCCCCCCCCCCO[C@@H]2[C@@H](n3cc(-c4ccc(Cl)c(F)c4)nn3)[C@@H](O)[C@@H](CO)O[C@H]2c2nc(C)nn2-c2cc(Cl)ccc2Cl)n(-c2cc(Cl)ccc2Cl)n1` [Example 16, (2R,3R,4S,5R,6S)-4-(4-(4-chloro-3-fluorophenyl)-1H-1,2,3-triazol-1-yl)-5-((10-(((2R,3S,4R,5S,6S)-4-(4-(4-chloro-3-fluorophenyl)-1H-1,2,3-triazol-1-yl)-2-(1-(2,5-dichlorophenyl)-3-methyl-1H-1,2,4-triazol-5-yl)-5-hydroxy-6-(hydroxymethyl)tetrahydro-2H-pyran-3-yl)oxy)decyl)oxy)-6-(1-(2,5-dichlorophenyl)-3-methyl-1H-1,2,4-triazol-5-yl)-2-(hydroxymethyl)tetrahydro-2H-pyran-3-ol], the half-maximal inhibitory concentration (IC50) is 10000 nM.

`Cc1nc([C@H]2O[C@@H](CO)[C@@H](O)[C@@H](n3cc(-c4cc(F)c(Cl)c(F)c4)nn3)[C@@H]2OCCCCCCCCO[C@@H]2[C@@H](n3cc(-c4cc(F)c(Cl)c(F)c4)nn3)[C@@H](O)[C@@H](CO)O[C@H]2c2nc(C)nn2-c2cc(Cl)ccc2Cl)n(-c2cc(Cl)ccc2Cl)n1` [Example 17, (2R,3R,4S,5R,6S)-4-(4-(4-chloro-3,5-difluorophenyl)-1H-1,2,3-triazol-1-yl)-5-((8-(((2R,3S,4R,5S,6S)-4-(4-(4-chloro-3,5-difluorophenyl)-1H-1,2,3-triazol-1-yl)-2-(1-(2,5-dichlorophenyl)-3-methyl-1H-1,2,4-triazol-5-yl)-5-hydroxy-6-(hydroxymethyl)tetrahydro-2H-pyran-3-yl)oxy)octyl)oxy)-6-(1-(2,5-dichlorophenyl)-3-methyl-1H-1,2,4-triazol-5-yl)-2-(hydroxymethyl)tetrahydro-2H-pyran-3-ol]: the IC50 worked out at 2000 nM.

For `Cc1nc(C2OC(CO)C(O)C(n3cc(-c4cc(F)c(F)c(F)c4)nn3)C2OC(=O)NCCCCNC(=O)OC2C(c3nc(C)nn3-c3cc(Cl)ccc3Cl)OC(CO)C(O)C2n2cc(-c3cc(F)c(F)c(F)c3)nn2)n(-c2cc(Cl)ccc2Cl)n1` [Example 18, (2R,3S,4R,5S,6S)-2-(1-(2,5-dichlorophenyl)-3-methyl-11H-1,2,4-triazol-5-yl)-5-hydroxy-6-(hydroxymethyl)-4-(4-(3,4,5-trifluorophenyl)-1H-1,2,3-triazol-1-yl)tetrahydro-2H-pyran-3-yl ((2S,3R,4S,5R,6R)-2-(1-(2,5-dichlorophenyl)-3-methyl-1H-1,2,4-triazol-5-yl)-5-hydroxy-6-(hydroxymethyl)-4-(4-(3,4,5-trifluorophenyl)-1H-1,2,3-triazol-1-yl)tetrahydro-2H-pyran-3-yl) butane-1,4-diyldicarbamate], the IC50 was 19 nM.

On to `Cc1nc([C@H]2O[C@@H](CO)[C@@H](O)[C@@H](n3cc(-c4cc(F)c(Cl)c(F)c4)nn3)[C@@H]2OC(=O)NCCCNC(=O)O[C@@H]2[C@@H](n3cc(-c4cc(F)c(Cl)c(F)c4)nn3)[C@@H](O)[C@@H](CO)O[C@H]2c2nc(C)nn2-c2cc(Cl)ccc2Cl)n(-c2cc(Cl)ccc2Cl)n1` [Example 19, (2R,3S,4R,5S,6S)-4-(4-(4-chloro-3,5-difluorophenyl)-1H-1,2,3-triazol-1-yl)-2-(1-(2,5-dichlorophenyl)-3-methyl-1H-1,2,4-triazol-5-yl)-5-hydroxy-6-(hydroxymethyl)tetrahydro-2H-pyran-3-yl ((2S,3R,4S,5R,6R)-4-(4-(4-chloro-3,5-difluorophenyl)-1H-1,2,3-triazol-1-yl)-2-(1-(2,5-dichlorophenyl)-3-methyl-1H-1,2,4-triazol-5-yl)-5-hydroxy-6-(hydroxymethyl)tetrahydro-2H-pyran-3-yl) propane-1,3-diyldicarbamate], for which the IC50 was 110 nM.

Take `Cc1nc([C@H]2O[C@@H](CO)[C@@H](O)[C@@H](n3cc(-c4cc(F)c(Cl)c(F)c4)nn3)[C@@H]2OCC(=O)N(C)CCN(C)C(=O)CO[C@@H]2[C@@H](n3cc(-c4cc(F)c(Cl)c(F)c4)nn3)[C@@H](O)[C@@H](CO)O[C@H]2c2nc(C)nn2-c2cc(Cl)ccc2Cl)n(-c2cc(Cl)ccc2Cl)n1` [Example 21]: the IC50 came out at 2 nM.

`Cc1nc([C@H]2O[C@@H](CO)[C@@H](O)[C@@H](n3cc(-c4cc(F)c(Cl)c(F)c4)nn3)[C@@H]2OCC(=O)N2CCN(C(=O)CO[C@@H]3[C@@H](n4cc(-c5cc(F)c(Cl)c(F)c5)nn4)[C@@H](O)[C@@H](CO)O[C@H]3c3nc(C)nn3-c3cc(Cl)ccc3Cl)CC2)n(-c2cc(Cl)ccc2Cl)n1` [Example 22]: the IC50 was 4 nM.

Turning to `Cc1nc([C@H]2O[C@@H](CO)[C@@H](O)[C@@H](n3cc(-c4cc(F)c(Cl)c(F)c4)nn3)[C@@H]2OCC(=O)N2CCCN(C(=O)CO[C@@H]3[C@@H](n4cc(-c5cc(F)c(Cl)c(F)c5)nn4)[C@@H](O)[C@@H](CO)O[C@H]3c3nc(C)nn3-c3cc(Cl)ccc3Cl)CC2)n(-c2cc(Cl)ccc2Cl)n1` [Example 23], the IC50 was determined as 4 nM.

For orientation: IC50 means the point on the concentration scale where inhibition reaches its midpoint.
